Laboratory results reported in the METLIN SMRT retention time set (Domingo-Almenara et al. 2019).

Test: gradient 5% acetonitrile 3 min, to 50% in 2 min, to 85% in 15 min, held 3 min, 100 µL/min
Conditions: column: Zorbax Extend-C18 2.1 x 50 mm; eluents: water / acetonitrile, 0.1% formic acid
Procedure, shortened: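 Retention times come from adduct peaks that were picked computationally and then checked by hand. The standards, pure and pooled in mixtures of ~100 molecules, were run on a Zorbax Extend-C18 column (2.1 × 50 mm, 1.8 μm) at 100 μL/min with water and acetonitrile, each with 0.1% formic acid. Detection was by quadrupole time-of-flight mass spectrometry in positive and negative ionization mode, with a dead volume of 40 μL and a dwell volume of 900 μL.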

Row | SMILES | RP-LC retention time
1 | CS(=O)(=O)Nc1ccc(C2(C(=O)NCc3ccc(F)cc3Cl)CCCCC2)cc1 | 979 s
2 | O=C(c1ccc2ncnc(N3CCCC3)c2c1)N1CCN(c2ccccc2F)CC1 | 659 s
3 | Clc1ccc(C(Cn2ccnc2)OCc2c(Cl)cccc2Cl)c(Cl)c1 (stereo not given) | 929 s
4 | Nc1ncnc(N2CCN(c3ccc(Cl)c(Cl)c3)CC2)c1[N+](=O)[O-] | 909 s
5 | CCOc1nc2ccccc2nc1N1CCCC(C(=O)NC(C)c2ccccc2)C1 (stereo not given) | 1120 s
6 | CCc1nc(-c2ccc3c(c2)CCN3C(=O)COc2ccccc2)no1 | 988 s
7 | O=C(Nc1ccc(F)cc1F)C1CCCN(S(=O)(=O)Cc2ccccc2)C1 (stereo not given) | 933 s
8 | COCc1cc(=O)n(Cc2ccccc2F)c(N2CCCC2)n1 | 790 s
9 | CSc1cccc(NC(=O)CCCn2nc(-n3cccc3)c3c(C)cc(C)nc32)c1 | 1040 s
10 | O=c1c2ccccc2c(-c2nc(-c3cccnc3)no2)cn1-c1ccc(Cl)cc1 | 1120 s
11 | CC(=O)N1CCC(C(=O)Nc2cccc(OCc3nnc(-c4ccc(Cl)cc4)o3)c2)CC1 | 762 s
12 | CCOC(=O)c1oc2ccc(S(=O)(=O)N3CCCCCCNC(=O)[C@@H]4CCC[C@@H]43)cc2c1C | 1060 s
13 | COc1ccc(CN2C[C@@H]3C(=O)N(C)C(=O)[C@@H]3C2)cc1OC | 566 s
14 | O=C(NCCN1CCCCCC1)C1CCN(c2cnc(N3CCCC3)nc2)CC1 | 569 s
15 | Cc1cccc(NC(=O)CSc2ccc(N3CCCC(C(=O)NC4CC4)C3)nn2)c1 (stereo not given) | 648 s
16 | CCCCOc1ccc(-c2cc3c(N4CCN(c5ccccn5)CC4)nccn3n2)cc1 | 822 s
17 | CC(NC(=O)Cn1nc(Cc2cccnc2)c2ccccc2c1=O)c1ccc2c(c1)OCCO2 (stereo not given) | 632 s
18 | COc1ccc(Cl)cc1NC(=O)Cc1nnc(-c2ccc3ncccc3c2)o1 | 797 s
19 | Cc1cc(=O)n(CC(=O)Nc2ccc(Br)cc2F)c(N2CCc3ccccc3C2)n1 | 953 s
20 | COc1ccc(NC(=O)Cn2c(N3CCCC3)nc(C)cc2=O)cc1 | 603 s
21 | COc1ccc(OC)c(Nc2c(C(=O)N3CCCC3)cnc3nc(C)ccc23)c1 | 601 s
22 | COc1ccc(-c2noc(C3CCCN3C(=O)c3ccccc3OC)n2)cc1OC (stereo not given) | 834 s
23 | CCOc1ccc(S(=O)(=O)N2CCCC(C(=O)NCc3cccnc3)C2)cc1C (stereo not given) | 685 s

Row | SMILES | RP-LC retention time
24 | CCS(=O)(=O)Nc1ccc(-c2noc(C(C)NC(=O)c3ccccc3)n2)cc1 (stereo not given) | 777 s
25 | CCN(CC)S(=O)(=O)c1ccc(Cl)c(-c2nnc(-c3ccccc3)o2)c1 | 1120 s
26 | O=C(CN1C(=O)CCCc2cc(S(=O)(=O)N3CCOCC3)ccc21)N1CCc2ccccc2C1 | 786 s
27 | O=C(Nc1ccc(F)cc1)Nc1cccn2ncnc12 | 763 s
28 | O=C(NCc1ccc(Cl)cc1)c1c(O)c2cccnc2[nH]c1=O | 1000 s
29 | Cc1ccc(NC(=O)N2CCC(n3cnnc3C3CC3)C2)cc1C (stereo not given) | 665 s
30 | Cc1ccc(S(=O)(=O)N2CCC(CN3CCCCCC3)CC2)cc1F | 686 s
31 | CCn1c(=O)c(C(=O)NCc2ccc(F)cc2)nc2cccnc21 | 790 s
32 | CC(C)NC(=O)c1cc(=O)[nH]c2c(Cl)cccc12 | 737 s
33 | Cc1cc(NC(=O)NCCn2nnc3cc(C(=O)N4CCCC4)ccc32)ccc1Br | 740 s
34 | CCOC(=O)c1c(C)[nH]c(C(=O)N2CCCC(C(=O)N3CCOCC3)C2)c1C (stereo not given) | 672 s
35 | Cc1ccc(S(=O)(=O)N2C(=O)CCC2C(=O)Nc2ccc(C)c(F)c2)cc1C (stereo not given) | 1020 s
36 | CN(C)CCNC(=O)c1ccc(Cn2nc(N3CCN(c4ccc(F)cc4)CC3)ccc2=O)o1 | 588 s
37 | O=S(=O)(c1cc(Cl)ccc1Cl)N1CCc2nc(-c3ccccc3)ncc2C1 | 1180 s
38 | O=C(COc1ccccc1-c1nnc(-c2ccccc2)o1)Nc1ccc2c(c1)OCO2 | 1100 s
39 | Cc1ccc(C)c2sc(OC3CCN(C(=O)c4ccc(S(C)(=O)=O)cc4)CC3)nc12 | 1000 s
40 | NC(=O)Cn1c2ccccc2c2ncn(Cc3nc(-c4ccccc4)no3)c(=O)c21 | 730 s
41 | COCCn1c(C)cc(O)c(C(c2ccc(Cl)cc2)N2CCC(C)CC2)c1=O (stereo not given) | 644 s
42 | CCCNC(=O)CCc1c(C)n(CC)c2nc(-c3ccccc3)nn2c1=O | 697 s
43 | CC(C)Cc1cc(-c2nn3c(-c4ccc(Cl)cc4)nnc3s2)n[nH]1 | 1100 s
44 | O=C(NC(Cc1ccccc1)c1nnc(N2CCCCCC2)o1)C1CC1 (stereo not given) | 788 s
45 | Cc1cc(C)n(CC(=O)N2CCC(c3nc(-c4ccncc4)no3)C2)n1 (stereo not given) | 839 s
46 | O=C(NCc1ccc2c(c1)N(C(=O)c1ccc(Cl)cc1)CC2)C1CC1 | 824 s

Row | SMILES | RP-LC retention time
47 | Cc1c2c(nn1-c1ccc(SCC(=O)NC(C)C)nn1)CCC2 | 841 s
48 | CCCc1ccc(S(=O)(=O)N2CCC(n3cnnc3C)CC2)cc1 | 767 s
49 | CCOC(=O)c1noc2ncnc(NCCCN3CCCc4ccccc43)c12 | 1240 s
50 | CCCNC(=O)c1ccc(-c2ccc(N3CCSCC3)nc2)cc1 | 666 s
51 | Cn1c(=O)sc2cc(S(=O)(=O)N3CCC(C(=O)Nc4ccccn4)CC3)ccc21 | 684 s
52 | Cc1ccc2cc(CCC(=O)NCCCN3CCCCC3C)c(=O)[nH]c2c1 (stereo not given) | 590 s
53 | CCn1c(C(=O)N2CCN(Cc3ccccc3)CC2)cc2c(-c3cccs3)nn(-c3ccccc3)c21 | 819 s
54 | O=C(NCC1CCN(C(=O)Oc2ccccc2)CC1)Nc1ccc(C(F)(F)F)cc1 | 947 s
55 | CCCC(Nc1nc(C(=O)OCC)nc2ccccc12)c1cccs1 (stereo not given) | 933 s
56 | CC(C)C(=O)n1nc(-c2ccccc2Cl)nc1N | 898 s
57 | CC(C)c1nnc2n1CCN(C(=O)c1nccc3ccccc13)C2 | 605 s
58 | COc1ccc(N2CCN(C(=O)CCC(=O)N3CCCn4nc(-c5cccn5C)cc43)CC2)cc1 | 711 s
59 | O=C(NCC(F)(F)F)C(=O)NCC1(c2cccs2)CCCCC1 | 804 s
60 | Cc1ccc(NC(=O)C2CC(=O)N(c3cccc(NC(=O)C4CCC4)c3)C2)cc1Cl (stereo not given) | 914 s
61 | Cc1ccc2ncn(C3CCN(S(=O)(=O)c4cccc(F)c4)CC3)c(=O)c2c1 | 909 s
62 | O=C(O)c1cnc(N2CCOCC2)nc1-c1cccnc1 | 569 s
63 | CCCNC(=O)C1CCCN(c2cc(=O)n(C)c(=O)n2C)C1 (stereo not given) | 597 s
64 | CC(=O)N1CCC2(CC1)CC(CCO)CCO2 (stereo not given) | 575 s
65 | CCc1cc(C(=O)Nc2ccc(F)c(C)c2)nc2ccnn12 | 1180 s
66 | Cc1ccc(N(Cc2nc3nc(C)cc(C)n3n2)C(=O)c2cccs2)cc1 | 802 s
67 | Cn1cc2c3c(cccc31)CN(C(=O)Nc1ccc(Cl)cc1F)CC2 | 1250 s
68 | COc1ccc(OC)c(NC(=O)c2[nH]c3cc(C)sc3c2CN(C)C)c1 | 692 s
69 | O=C(NC1(c2nc(-c3ccccc3)no2)CCCCC1)c1cccc(F)c1 | 1180 s

Row | SMILES | RP-LC retention time
70 | CSc1ccc(-c2nc3cnccn3c2Nc2ccc(Cl)cc2)cc1 | 1010 s
71 | Cc1ccc(CNC(=O)c2cc3sccc3n2Cc2ccc(F)cc2)cc1 | 888 s
72 | O=C(Nc1ccccc1Br)c1n[nH]nc1Nc1ccccc1 | 1100 s
73 | Cc1ccc(C)c(CNC(=O)c2nc3cccnc3n(CC(C)C)c2=O)c1 | 1060 s
74 | O=C(Cn1c(=O)c2cccn2c2ccccc21)Nc1ccc(Cl)cc1 | 901 s
75 | COc1ccccc1CNC(=O)C1CCN(S(C)(=O)=O)c2ccccc2O1 (stereo not given) | 807 s
76 | CSc1ccc(-c2nc3cnccn3c2Nc2cccc(C(=O)O)c2)cc1 | 744 s
77 | Cc1cc2c(N3CCN(CCO)CC3)ncnc2s1 | 520 s
78 | CCOc1ccc(-c2noc(Cn3cnc4c(oc5ccccc54)c3=O)n2)cc1OC | 916 s
79 | CN(CC#N)C(=O)Cn1c(=O)c2cccn2c2ccccc21 | 705 s
80 | CCc1cccc(NC(=O)Cn2c(N)nc(COC)cc2=O)c1 | 650 s
81 | Cc1ccnc(Nc2nc(-c3cc(C)ccc3C)cs2)c1 | 882 s
82 | CCCn1cc(CCNS(=O)(=O)c2ccc(C(C)C)cc2)c2cccnc21 | 1030 s
83 | O=C(CN1CCN(Cc2ccccc2F)C1=O)NCc1ccc(F)cc1 | 808 s
84 | CCN1CCN(C(=O)C2Cc3cc(S(=O)(=O)N4CCCCC4)ccc3N2C(C)=O)CC1 (stereo not given) | 601 s
85 | O=C(CN1C(=O)CCc2cc(Br)ccc21)Nc1ccc2c(c1)OCCO2 | 912 s
86 | Cc1ccc(C)c(N2CCN(c3ccnc(SCC(=O)Nc4ccc5c(c4)OCO5)n3)CC2)c1 | 858 s
87 | COc1ccc(CC(=O)N2CCC3(CC2)NC(=O)c2cc(F)ccc2N3C)cc1 | 768 s
88 | c1cc(-c2noc(-c3ccc4c(c3)OCO4)n2)cc(N2CCCC2)n1 | 690 s
89 | CC(=O)N1CCC(n2c(C)nc(C(=O)Nc3ccc4c(c3)OCO4)c2C)CC1 | 603 s
90 | COc1ccc(-c2nc3cccc(C)n3c2Nc2ccc3c(c2)OCCO3)cc1 | 987 s
